Key:
Type in all cases: cell-based
[1] = tested on: MDA-MB-468; assay: CellTiter-Glo cell proliferation inhibition, MDA-MB-468; conditions: Homo sapiens, 144 h, MDA-MB-468 (CTG), 6 days, starting concentration 10 μM; for inhibition at up to 10 µM: read-out: IH % max (maximum inhibition percentage)
From the text: (§1) 1. Cell line • (1) Breast cancer cell lines and their culture media: • MCF-7 (ATCC; Cat. No.: HTB-22), a Luminal A breast cancer cell; • TamR-MCF-7 (ATCC; Cat. No.: CRL-3435), a breast cancer cell; • MCF-7 ER^D538G: a Luminal A breast cancer cell obtained by constructing MCF-7 (ATCC; Cat. No.: HTB-22) using CRISPR-Cas9 gene editing technology; • MCF-7 ER^Y537S: a Luminal A breast cancer cell obtained by constructing MCF-7 (ATCC; Cat. No.: HTB-22) using CRISPR-Cas9 gene editing technology; • MDA-MB-231: (manufacturer: Nanjing CoBioer Biosciences Co., Ltd.), a triple-negative breast cancer cell; • MDA-MB-468: (manufacturer: Nanjing CoBioer Biosciences Co., Ltd.), a triple-negative breast cancer cell.
(§2) Herein, the culture medium of MCF-7, TamR-MCF-7, MCF-7 ER^D538G, and MCF-7 ER^Y537S was EMEM; • the culture medium of MDA-MB-231 and MDA-MB-468 was DMEM.
(§3) 2. Reagents • Culture medium EMEM (Gibco, 1964507) • Culture medium DMEM (Gibco, 12430-054) • Fetal bovine serum (Gibco, 10091148) • Penicillin-streptomycin double antibody (Gibco, S110JV) • DPBS (Gibco, 14190-144) • CellTiter-Glo® assay kit (Promega, G7573) • Trypsin (0.25%) (Gibco, 25200-056) • DMSO (Sigma, D2650)
(§4) 3. Instruments • Biosafety cabinet (AIRTECH, BSC-1300A II) • Automated cell counter (Life Technologies, countess II) • Multifunctional microplate reader (Biotek, H1FM) • Orbital shaker (Hangzhou Allsheng Instruments Co., Ltd., OS-100) • XLFIT 5.3 (Inforstack Shanghai Co., Ltd.)
(§5) For this test method, the following experiments were performed in a biosafety cabinet, with the specific steps as follows: • (1) Cells were inoculated in a 96-well plate. One day later, the previous culture medium was poured off, 5 mL of DPBS was added to wash the cells, and then DPBS was pipetted and discarded. An appropriate amount of trypsin was then added. The plate was digested in a 37° C., 5% CO2 cell incubator for about 2 to 5 minutes and then taken out. Anew corresponding culture medium was added, and pipetted up and down to resuspend the cells evenly. The cells were then counted using an automated cell counter. • (2) Each cell was inoculated in columns 1 to 11 of a 96-well plate (Corning, Cat. No.: 3610) at a density of 1,000 or 2,000 cells per well in 100 μL of culture medium, and 100 μL of the corresponding culture medium without cells was added to the wells in column 12. The plate was then placed in a 37° C., 5% CO2 incubator for 24 hours. • (3) The compound of the present disclosure and the control drug fulvestrant (Selleck; Cat. No.: S1191) were then 4-fold serially diluted to 10 dose points starting at 10 μM. 10 μL of the serially diluted compound was pipetted and added to 100 μL of cells in columns 1 to 10, and 10 μL of the corresponding culture medium containing 0.33 v % DMSO was added to both columns 11 and 12. The plate was incubated in a 37° C., 5% CO2 incubator for 6 days or 72 hours (Note: column 11 was used as a MAX well with cells but without compound; column 12 was used as a MIN well without cells […]). • (4) The cell viability detection reagent in the CellTiter-Glo® assay kit was then added to the 96-well plate at 50 μL per well according to the instructions, and shaken on an orbital shaker in the dark for 5 to 10 minutes. The cell viability was then measured using a multifunctional microplate reader. Finally, the inhibition of cell proliferation by the compound of the present disclosure was plotted by XLFIT software, and the IC50 value (half inhibitory concentration) and the IH % max (maximum inhibition percentage) of the compound of the present disclosure were calculated.
Compounds D64 to D69 were tested for MDA-MB-231 (CTG) and MDA-MB-468 (CTG) with an incubation time of 72 hours in the incubator.

[2] = tested on: MCF-7; assay: CellTiter-Glo cell proliferation inhibition, MCF-7 (Effect Example 2); conditions: Homo sapiens, MCF7, 144 h, MCF-7 (CTG), 6 days, starting concentration 10 μM; for inhibition at up to 10 µM: read-out: IH % max (maximum inhibition percentage)
From the text: as §1, §2, §3, §4, §5

[3] = tested on: MCF-7 ER^D538G; assay: CellTiter-Glo cell proliferation inhibition, MCF-7 ER^D538G; conditions: Homo sapiens, MCF7, 144 h; MCF-7 ER^D538G (CTG), 6 days, starting concentration 10 μM; read-out: IH % max (maximum inhibition percentage)
From the text: as §1, §2, §3, §4, §5

Question: Which results are given for `COc1ccc2c(Oc3ccc(OCCN4CCN(c5ccc6c(c5)CN(C5CCC(=O)NC5=O)C6=O)CC4)cc3)c(-c3ccc(S(C)(=O)=O)cc3)ccc2c1` (stereo not shown) [Compound D3, 3-(5-(4-(2-(4-((6-methoxy-2-(4-(methylsulfonyl)phenyl)naphthalen-1-yl)oxy)phenoxy)ethyl)piperazin-1-yl)-1-oxoisoindolin-2-yl)piperidine-2,6-dione]?
Answer: IC50 [1]: 18.6 nM; inhibition at up to 10 µM [1]: 73%; inhibition at up to 10 µM [2]: 30%

Question: With `CS(=O)(=O)c1ccc(-c2ccc3cc(O)ccc3c2Oc2ccc(OCCCCN3CCN(c4ccc5c(c4)C(=O)N(C4CCC(=O)NC4=O)C5=O)CC3)cc2)cc1` (stereo not shown) [Compound D13, 2-(2,6-dioxopiperidin-3-yl)-5-(4-(4-(4-((6-hydroxy-2-(4-(methylsulfonyl)phenyl)naphthalen-1-yl)oxy)phenoxy)butyl)piperazin-1-yl)isoindoline-1,3-dione] as the molecule, how does the inhibition at up to 10 µM [2] read?
Answer: 34%

Question: `CS(=O)(=O)c1ccc(-c2ccc3cc(O)ccc3c2Oc2ccc(OCCOCCOCCOCCOc3cccc4c3CN(C3CCC(=O)NC3=O)C4=O)cc2)cc1` (stereo not shown) [Compound D14, 3-(4-(2-(2-(2-(2-(4-((6-hydroxy-2-(4-(methylsulfonyl)phenyl)naphthalen-1-yl)oxy)phenoxy)ethoxy)ethoxy)ethoxy)ethoxy)-1-oxoisoindolin-2-yl)piperidine-2,6-dione] was tested. Which inhibition at up to 10 µM [1] did it give?
Answer: 32%

Question: And the inhibition at up to 10 µM [3]?
Answer: 40%

Question: What about the inhibition at up to 10 µM [2] of the same molecule?
Answer: 42%

Question: `CS(=O)(=O)c1ccc(-c2ccc3cc(O)ccc3c2Oc2ccc(OCCOCCOCCOCCNc3cccc4c3CN(C3CCC(=O)NC3=O)C4=O)cc2)cc1` (stereo not shown) [Compound D20, 3-(4-((2-(2-(2-(2-(4-((6-hydroxy-2-(4-(methylsulfonyl)phenyl)naphthalen-1-yl)oxy)phenoxy)ethoxy)ethoxy)ethoxy)ethyl)amino)-1-oxoisoindolin-2-yl)piperidine-2,6-dione] was tested. Which inhibition at up to 10 µM [2] did it give?
Answer: 38%

Question: For `CS(=O)(=O)c1ccc(-c2ccc3cc(O)ccc3c2Oc2ccc(OCCOCCOCCOCCNc3ccc4c(c3)C(=O)N(C3CCC(=O)NC3=O)C4)cc2)cc1` (stereo not shown) [Compound D29], which inhibition at up to 10 µM [3] is on record?
Answer: 47%

Question: And the inhibition at up to 10 µM [2]?
Answer: 47%

Question: Which inhibition at up to 10 µM [3] does the source give for `CS(=O)(=O)c1ccc(-c2ccc3cc(O)ccc3c2Oc2ccc(OCCOCCOCCN3CCN(c4cccc5c4CN(C4CCC(=O)NC4=O)C5=O)CC3)cc2)cc1` (stereo not shown) [Compound D37, 3-(4-(4-(2-(2-(2-(4-((6-hydroxy-2-(4-(methylsulfonyl)phenyl)naphthalen-1-yl)oxy)phenoxy)ethoxy)ethoxy)ethyl)piperazin-1-yl)-1-oxoisoindolin-2-yl)piperidine-2,6-dione] here?
Answer: 52%

Question: What about the inhibition at up to 10 µM [2] of the same molecule?
Answer: 49%

Question: How did the inhibition at up to 10 µM [3] turn out when `CS(=O)(=O)c1ccc(-c2ccc3cc(O)ccc3c2Oc2ccc(OCCOCCN3CCN(c4ccc5c(c4)C(=O)N(C4CCC(=O)NC4=O)C5)CC3)cc2)cc1` (stereo not shown) [Compound D43, 3-(6-(4-(2-(2-(4-((6-hydroxy-2-(4-(methylsulfonyl)phenyl)naphthalen-1-yl)oxy)phenoxy)ethoxy)ethyl)piperazin-1-yl)-1-oxoisoindolin-2-yl)piperidine-2,6-dione] was run?
Answer: 36%

Question: And the inhibition at up to 10 µM [2]?
Answer: 36%

Question: For `CCN(CCOCCOCC(=O)N1CCN(c2ccc3c(c2)C(=O)N(C2CCC(=O)NC2=O)C3)CC1)CCOc1ccc(Oc2c(-c3ccc(S(C)(=O)=O)cc3)ccc3cc(O)ccc23)cc1` (stereo not shown) [Compound D44], which inhibition at up to 10 µM [3] is on record?
Answer: 52%

Question: And the inhibition at up to 10 µM [2]?
Answer: 33%

Question: `CCN(CCOCCOCC(=O)N1CCN(c2ccc3c(c2)CN(C2CCC(=O)NC2=O)C3=O)CC1)CCOc1ccc(Oc2c(-c3ccc(S(C)(=O)=O)cc3)ccc3cc(O)ccc23)cc1` (stereo not shown) [Compound D46] was tested. Which inhibition at up to 10 µM [3] did it give?
Answer: 46%

Question: What about the inhibition at up to 10 µM [2] of the same molecule?
Answer: 34%

Question: `CCN(CCOCC(=O)N1CCN(c2ccc3c(c2)C(=O)N(C2CCC(=O)NC2=O)C3)CC1)CCOc1ccc(Oc2c(-c3ccc(S(C)(=O)=O)cc3)ccc3cc(O)ccc23)cc1` (stereo not shown) [Compound D50] was tested. Which inhibition at up to 10 µM [2] did it give?
Answer: 48.4%

Question: With `CCN(CCOCCN1CCN(c2ccc3c(c2)C(=O)N(C2CCC(=O)NC2=O)C3)CC1)CCOc1ccc(Oc2c(-c3ccc(S(C)(=O)=O)cc3)ccc3cc(O)ccc23)cc1` (stereo not shown) [Compound D51] as the molecule, how does the IC50 [2] read?
Answer: 143 nM

Question: And the inhibition at up to 10 µM [2]?
Answer: 52.9%

Question: With `CS(=O)(=O)c1ccc(-c2ccc3cc(O)ccc3c2Oc2ccc(OCCN3CCN(c4cccc5c4CN(C4CCC(=O)NC4=O)C5=O)CC3)cc2)cc1` (stereo not shown) [Compound D53, 3-(4-(4-(2-(4-((6-hydroxy-2-(4-(methylsulfonyl)phenyl)naphthalen-1-yl)oxy)phenoxy)ethyl)piperazin-1-yl)-1-oxoisoindolin-2-yl)piperidine-2,6-dione] as the molecule, how does the inhibition at up to 10 µM [1] read?
Answer: 99.2%

Question: What about the inhibition at up to 10 µM [2] of the same molecule?
Answer: 49.7%

Question: For `CS(=O)(=O)c1ccc(-c2ccc3cc(O)ccc3c2Oc2ccc(OCC(=O)N3CCN(c4ccc5c(c4)CN(C4CCC(=O)NC4=O)C5=O)CC3)cc2)cc1` (stereo not shown) [Compound D54, 3-(5-(4-(2-(4-((6-hydroxy-2-(4-(methylsulfonyl)phenyl)naphthalen-1-yl)oxy)phenoxy)acetyl)piperazin-1-yl)-1-oxoisoindolin-2-yl)piperidine-2,6-dione], which IC50 [2] is on record?
Answer: 13.2 nM

Question: What about the inhibition at up to 10 µM [2] of the same molecule?
Answer: 96.5%

Question: `CCN(CCOc1ccc(Oc2c(-c3ccc(S(C)(=O)=O)cc3)ccc3cc(O)ccc23)cc1)CCN1CCN(c2ccc3c(c2)C(=O)N(C2CCC(=O)NC2=O)C3)CC1` (stereo not shown) [Compound D56] was tested. Which inhibition at up to 10 µM [2] did it give?
Answer: 55.6%

Question: With `COc1ccc2c(Oc3ccc(OCCCCN4CCN(c5ccc6c(c5)CN(C5CCC(=O)NC5=O)C6=O)CC4)cc3)c(-c3ccc(S(C)(=O)=O)cc3)ccc2c1` (stereo not shown) [Compound D58, 3-(5-(4-(4-(4-((6-methoxy-2-(4-(methylsulfonyl)phenyl)naphthalen-1-yl)oxy)phenoxy)butyl)piperazin-1-yl)-1-oxoisoindolin-2-yl)piperidine-2,6-dione] as the molecule, how does the inhibition at up to 10 µM [2] read?
Answer: 39%

Question: `CCN(CCOCCOCCOCCNc1ccc2c(c1)C(=O)N(C1CCC(=O)NC1=O)C2=O)CCOc1ccc(Oc2c(-c3ccc(S(C)(=O)=O)cc3)ccc3cc(O)ccc23)cc1` (stereo not shown) [Compound D62, 2-(2,6-dioxopiperidin-3-yl)-5-((3-ethyl-1-(4-((6-hydroxy-2-(4-(methylsulfonyl)phenyl)naphthalen-1-yl)oxy)phenoxy)-6,9,12-trioxa-3-azatetradecan-14-yl)amino)isoindoline-1,3-dione] was tested. Which inhibition at up to 10 µM [1] did it give?
Answer: 98.5%

Question: And the inhibition at up to 10 µM [2]?
Answer: 45.1%

Question: With `CCN(CCCCCCCCCc1ccc2c(c1)C(=O)N(C1CCC(=O)NC1=O)C2=O)CCOc1ccc(Oc2c(-c3ccc(S(C)(=O)=O)cc3)ccc3cc(O)ccc23)cc1` (stereo not shown) [Compound D63, 2-(2,6-dioxopiperidin-3-yl)-5-(9-(ethyl(2-(4-((6-hydroxy-2-(4-(methylsulfonyl)phenyl)naphthalen-1-yl)oxy)phenoxy)ethyl)amino)nonyl)isoindoline-1,3-dione] as the molecule, how does the IC50 [2] read?
Answer: 153 nM

Question: And the inhibition at up to 10 µM [2]?
Answer: 98.9%
